Legend:
Type in all cases: in vivo
wheat = experiment: Test Example 4: effect on crop by soil treatment (symbol e); conditions: for e (wheat) effect on crop grade: application herbicide amount 320 g/ha; for e: wheat, effect grade on crop: 320 g/ha
Procedure, shortened: (§1)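 Sterilized diluvial soil, spot sowing, ~1.5 cm soil cover; greenhouse 25–30° C.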

corn = experiment: Test Example 5: effect on crop by foliage application, plastic box (symbol c); conditions: 320 g/ha, 3 weeks after application
Procedure, shortened: (§2)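 Diluvial soil, sterilized and boxed (21 × 13 × 7 cm), received spot-sown seed covered by about 1.5 cm soil; plants were then greenhouse-grown at 25–30° C.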

Alopecurus myosuroides [1] = experiment: Test Example 5: herbicidal effect by foliage application, plastic box (symbol J); conditions: 320 g/ha, 3 weeks after application
Procedure, shortened: (§3)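 Post-emergence spray; diluvial soil (sterilized), ~1.5 cm seed cover; greenhouse 25–30° C; 14-day-old plants; water-diluted emulsion at predetermined dose; visual score at 3 wk post-treatment.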

soybean = experiment: Test Example 4: effect on crop by soil treatment (symbol d); conditions: for d (soybean) effect on crop grade: application herbicide amount 320 g/ha; for d: soybean, effect grade on crop: 320 g/ha
Procedure, shortened: as §1

Alopecurus myosuroides [2] = experiment: Test Example 4: herbicidal effect by soil treatment (symbol J); conditions: for J (Alopecurus myosuroides) herbicidal effect grade: application herbicide amount 320 g/ha; for J: Alopecurus myosuroides, herbicidal effect grade: 320 g/ha
Procedure, shortened: (§4)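 Seeds were sown in sterilized diluvial soil, covered with about 1.5 cm of soil, and the soil surface was sprayed with a water-diluted emulsion of the compound at a predetermined rate. Plants grew in a greenhouse at 25° C. to 30° C.; effects were scored visually 3 weeks after application.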

rice = experiment: Test Example 4: effect on crop by soil treatment (symbol b); conditions: for b (directly sowed rice plant) effect on crop grade: application herbicide amount 320 g/ha; for b: directly sowed rice plant, effect grade on crop: 320 g/ha
Procedure, shortened: as §1

Galium spurium = experiment: Test Example 5: herbicidal effect by foliage application, plastic box (symbol Q); conditions: 320 g/ha, 3 weeks after application
Procedure, shortened: as §3

Monochoria vaginalis = experiment: Test Example 2: herbicidal activity, application during weed generation in submerged conditions (symbol C); conditions: Table 23; application herbicide amount 320 g/ha; grade 0-5 by criteria of Test Example 1
Procedure, shortened: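 Flooded-soil post-emergence test: emulsion of compound, water-diluted to target rate, applied to paddy water surface at 1–2 leaf stage of mixed-sown weeds (alluvial soil, 4 cm water, 25–30° C. greenhouse); visual rating 3 weeks after application.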

Scirpus juncoides = experiment: Test Example 1: herbicidal activity, application before weed generation in submerged conditions (symbol B); conditions: application herbicide amount 320 g/ha
Procedure, shortened: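 Application before weed emergence: an aqueous dilution of the emulsion formulation was poured onto the surface of 4 cm-deep floodwater on the day of sowing. Effect was judged after 3 weeks (greenhouse, 25–30 °C).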

Lolium multiflorum Lam. = experiment: Test Example 4: herbicidal effect by soil treatment (symbol K); conditions: for K (Lolium multiflorum Lam.) herbicidal effect grade: application herbicide amount 320 g/ha; for K: Lolium multiflorum Lam., herbicidal effect grade: 320 g/ha
Procedure, shortened: as §4

Digitaria ciliaris = experiment: Test Example 5: herbicidal effect by foliage application, plastic box (symbol F); conditions: 320 g/ha, 3 weeks after application
Procedure, shortened: as §3

rapeseed = experiment: Test Example 5: effect on crop by foliage application, plastic box (symbol g); conditions: 320 g/ha, 3 weeks after application
Procedure, shortened: as §2

[3] = tested on: Echinochloa crus-galli var. crus-galli; experiment: Test Example 5: herbicidal effect by foliage application, plastic box (symbol H); conditions: 320 g/ha, 3 weeks after application
Procedure, shortened: as §3

transplanted rice plant = experiment: Test Example 1: effect on crop, application before weed generation in submerged conditions (symbol a); conditions: application herbicide amount 320 g/ha
Procedure, shortened: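 Rice at 2.5 leaf stage transplanted into submerged soil (4 cm depth) sown with three weed species; herbicide applied before weed emergence.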

| Structure (SMILES) | e (wheat) effect on crop grade (wheat) | c: corn, effect on crop grade (corn) | J: Alopecurus myosuroides, herbicidal effect grade (Alopecurus myosuroides [1]) | d (soybean) effect on crop grade (soybean) | J (Alopecurus myosuroides) herbicidal effect grade (Alopecurus myosuroides [2]) | b (directly sowed rice plant) effect on crop grade (rice) | Q: Galium spurium, herbicidal effect grade (Galium spurium) | Herbicidal effect grade, C: Monochoria vaginalis (Monochoria vaginalis) | Herbicidal effect grade, B: Scirpus juncoides (Scirpus juncoides) | K (Lolium multiflorum Lam.) herbicidal effect grade (Lolium multiflorum Lam.) | F: Digitaria ciliaris, herbicidal effect grade (Digitaria ciliaris) | g: rapeseed, effect on crop grade (rapeseed) | H: Echinochloa crus-galli var. crus-galli, herbicidal effect grade [3] | Effect grade on crop, a: transplanted rice plant (transplanted rice plant) | e: wheat, effect grade on crop (wheat) | c: corn, effect on crop (criteria 0-5) (corn) | J: Alopecurus myosuroides, herbicidal effect (criteria 0-5) (Alopecurus myosuroides [1]) | d: soybean, effect grade on crop (soybean) | J: Alopecurus myosuroides, herbicidal effect grade (Alopecurus myosuroides [2]) | b: directly sowed rice plant, effect grade on crop (rice) | other results |
| --- | --- | --- | --- | --- | --- | --- | --- | --- | --- | --- | --- | --- | --- | --- | --- | --- | --- | --- | --- | --- | --- |
| CCCC(CC1CC(O)=C(c2c(C)cc(C)cc2C)C1=O)=NOC (stereo not drawn) [1-062] | 0 (Herbicidal ratio of 5% or lower (almost no effect)) | 4 (Herbicidal ratio of 70% or higher and lower than 90%) | 5 (Herbicidal ratio of 90% or more (almost completely withered)) | 0 (Herbicidal ratio of 5% or lower (almost no effect)) | 5 (Herbicidal ratio of 90% or more (almost completely withered)) | 5 (Herbicidal ratio of 90% or more (almost completely withered)) | 0 (Herbicidal ratio of 5% or lower (almost no effect)) | 0 (Herbicidal ratio of 5% or lower (almost no effect)) | 2 (Herbicidal ratio of 20% or higher and lower than 40%) | 5 (Herbicidal ratio of 90% or more (almost completely withered)) | 1 (Herbicidal ratio of 5% or higher and lower than 20%) | 3 (Herbicidal ratio of 40% or higher and lower than 70%) | 4 (Herbicidal ratio of 70% or higher and lower than 90%) | 5 (Herbicidal ratio of 90% or more (almost completely withered)) |  |  |  |  |  |  |  |
| COCCON=C(C)CC1CC(O)=C(c2c(C)cc(C)cc2C)C1=O (stereo not drawn) [1-041] | 4 (Herbicidal ratio of 70% or higher and lower than 90%) | 5 (Herbicidal ratio of 90% or more (almost completely withered)) | 5 (Herbicidal ratio of 90% or more (almost completely withered)) | 1 (Herbicidal ratio of 5% or higher and lower than 20%) | 5 (Herbicidal ratio of 90% or more (almost completely withered)) | 5 (Herbicidal ratio of 90% or more (almost completely withered)) | 3 (Herbicidal ratio of 40% or higher and lower than 70%) | 0 (Herbicidal ratio of 5% or lower (almost no effect)) | 5 (Herbicidal ratio of 90% or more (almost completely withered)) | 5 (Herbicidal ratio of 90% or more (almost completely withered)) | 5 (Herbicidal ratio of 90% or more (almost completely withered)) | 4 (Herbicidal ratio of 70% or higher and lower than 90%) | 5 (Herbicidal ratio of 90% or more (almost completely withered)) | 5 (Herbicidal ratio of 90% or more (almost completely withered)) |  |  |  |  |  |  |  |
| CON=C(C)CC1CC(OC(=O)C(C)Oc2ccc(Oc3cnc4cc(Cl)ccc4n3)cc2)=C(c2c(C)cc(C)cc2C)C1=O (stereo not drawn) [1-087] |  |  |  |  |  |  |  | 1 (Herbicidal ratio of 5% or higher and lower than 20%) | 5 (Herbicidal ratio of 90% or more (almost completely withered)) |  |  |  |  | 5 (Herbicidal ratio of 90% or more (almost completely withered)) | 5 (Herbicidal ratio of 90% or more (almost completely withered)) | 5 (Herbicidal ratio of 90% or more (almost completely withered)) | 5 (Herbicidal ratio of 90% or more (almost completely withered)) | 2 (Herbicidal ratio of 20% or higher and lower than 40%) | 5 (Herbicidal ratio of 90% or more (almost completely withered)) | 5 (Herbicidal ratio of 90% or more (almost completely withered)) | Q: Galium spurium, herbicidal effect (criteria 0-5) (Galium spurium): 4 (Herbicidal ratio of 70% or higher and lower than 90%); K: Lolium multiflorum Lam., herbicidal effect grade (Lolium multiflorum Lam.): 5 (Herbicidal ratio of 90% or more (almost completely withered)); F: Digitaria ciliaris, herbicidal effect (criteria 0-5) (Digitaria ciliaris): 5 (Herbicidal ratio of 90% or more (almost completely withered)); g: rapeseed, effect on crop (criteria 0-5) (rapeseed): 4 (Herbicidal ratio of 70% or higher and lower than 90%); H: Echinochloa crus-galli var. crus-galli, herbicidal effect (criteria 0-5) [3]: 5 (Herbicidal ratio of 90% or more (almost completely withered)) |
| CON=C(CC1CC(O)=C(c2c(C)cc(C)cc2C)C1=O)C(C)C (stereo not drawn) [1-048] | 2 (Herbicidal ratio of 20% or higher and lower than 40%) | 4 (Herbicidal ratio of 70% or higher and lower than 90%) | 5 (Herbicidal ratio of 90% or more (almost completely withered)) | 0 (Herbicidal ratio of 5% or lower (almost no effect)) | 5 (Herbicidal ratio of 90% or more (almost completely withered)) | 5 (Herbicidal ratio of 90% or more (almost completely withered)) | 1 (Herbicidal ratio of 5% or higher and lower than 20%) | 2 (Herbicidal ratio of 20% or higher and lower than 40%) | 4 (Herbicidal ratio of 70% or higher and lower than 90%) | 5 (Herbicidal ratio of 90% or more (almost completely withered)) | 4 (Herbicidal ratio of 70% or higher and lower than 90%) | 3 (Herbicidal ratio of 40% or higher and lower than 70%) | 5 (Herbicidal ratio of 90% or more (almost completely withered)) | 5 (Herbicidal ratio of 90% or more (almost completely withered)) |  |  |  |  |  |  |  |
| CON=C(C)CC1CC(OC(=O)COc2ccc(Br)cc2)=C(c2c(C)cc(C)cc2C)C1=O (stereo not drawn) [1-081] |  |  |  |  |  |  |  | 3 (Herbicidal ratio of 40% or higher and lower than 70%) | 5 (Herbicidal ratio of 90% or more (almost completely withered)) |  |  |  |  | 5 (Herbicidal ratio of 90% or more (almost completely withered)) | 4 (Herbicidal ratio of 70% or higher and lower than 90%) | 5 (Herbicidal ratio of 90% or more (almost completely withered)) | 5 (Herbicidal ratio of 90% or more (almost completely withered)) | 1 (Herbicidal ratio of 5% or higher and lower than 20%) | 5 (Herbicidal ratio of 90% or more (almost completely withered)) | 5 (Herbicidal ratio of 90% or more (almost completely withered)) | Q: Galium spurium, herbicidal effect (criteria 0-5) (Galium spurium): 0 (Herbicidal ratio of 5% or lower (almost no effect)); K: Lolium multiflorum Lam., herbicidal effect grade (Lolium multiflorum Lam.): 5 (Herbicidal ratio of 90% or more (almost completely withered)); F: Digitaria ciliaris, herbicidal effect (criteria 0-5) (Digitaria ciliaris): 5 (Herbicidal ratio of 90% or more (almost completely withered)); g: rapeseed, effect on crop (criteria 0-5) (rapeseed): 5 (Herbicidal ratio of 90% or more (almost completely withered)); H: Echinochloa crus-galli var. crus-galli, herbicidal effect (criteria 0-5) [3]: 5 (Herbicidal ratio of 90% or more (almost completely withered)) |
| CON=C(CC1CC(O)=C(c2c(C)cc(C)cc2C)C1=O)C1CCCCC1 (stereo not drawn) [1-085] |  |  |  |  |  |  |  | 0 (Herbicidal ratio of 5% or lower (almost no effect)) | 0 (Herbicidal ratio of 5% or lower (almost no effect)) |  |  |  |  | 3 (Herbicidal ratio of 40% or higher and lower than 70%) | 0 (Herbicidal ratio of 5% or lower (almost no effect)) | 5 (Herbicidal ratio of 90% or more (almost completely withered)) | 3 (Herbicidal ratio of 40% or higher and lower than 70%) | 0 (Herbicidal ratio of 5% or lower (almost no effect)) | 3 (Herbicidal ratio of 40% or higher and lower than 70%) | 5 (Herbicidal ratio of 90% or more (almost completely withered)) | Q: Galium spurium, herbicidal effect (criteria 0-5) (Galium spurium): 0 (Herbicidal ratio of 5% or lower (almost no effect)); K: Lolium multiflorum Lam., herbicidal effect grade (Lolium multiflorum Lam.): 3 (Herbicidal ratio of 40% or higher and lower than 70%); F: Digitaria ciliaris, herbicidal effect (criteria 0-5) (Digitaria ciliaris): 3 (Herbicidal ratio of 40% or higher and lower than 70%); g: rapeseed, effect on crop (criteria 0-5) (rapeseed): 1 (Herbicidal ratio of 5% or higher and lower than 20%); H: Echinochloa crus-galli var. crus-galli, herbicidal effect (criteria 0-5) [3]: 5 (Herbicidal ratio of 90% or more (almost completely withered)) |

From patent US11000033B2, “Ketone or oxime compound, and herbicide” (NISSAN CHEMICAL CORPORATION, priority 2014, dated 2021)
